Structures can show the parent of a compound that is named as a salt. Where two headings read alike, the source gives them in different places.
Tests used:
[1] = test system: K562, U937, Jurkat, T47-D, MCF7, BT20 and 184B5 cell lines; experiment: Cytotoxicity in malignant and immortalized cell lines (manual counting, Alamar assay); format: cell-based; conditions: for cytotoxic activity: dilutions greater than 1:1,000, especially about 1:10,000; for cytotoxicity: dilutions of from 1:100 to 1:1,000, 48 and 144 hours after treatment
Protocol: These four compounds were added at different concentrations to cultures of various malignant cell lines and normal cells. The cell lines used for these tests were the following:
All leukemic cell lines were grown and used in logarithmic phase. After one day of treatment, the cells were isolated, counted and diluted in a regular growth medium to provide the cell density of about 75×10^3 cells/ml for reading on plates at 48 hours after the treatment, and […] for reading at 144 hours after the treatment.
(§1) Several dilutions of each compound tested were added to the wells (12 wells per plate, TPP), and 1 ml of cells from the parent solution was added per well after a line had been completed. The dilutions were made using the culture medium, and following dilutions were tested: control, which contained no compound of this invention; 1:100; 1:1,000; 1:2,000; 1:5,000; and 1:10,000. The starting concentrations for these dilutions were: 50 mg/ml for compound A; 10 mg/ml for compound B; 25 mg/ml for compound C; and 5 mg/ml for compound D. The results were analyzed by manual counting and Alamar reduced assay.
(§2) The cells were grown on their respective propagation medium and seeded 24 hours before the compounds are added. The cells were trypsinized, and 50,000 cells/well and 10,000 cells/well were seeded in order to read the plates at 48 hours and 144 hours after being treated by the compounds, respectively.
(§3) On the day of the treatment, the medium was replaced by 10 ml each of series dilution of the compounds, consisting of: control, which contained no compound of this invention; 1:100 dilution; 1:1,000 dilution; 1:2,000 dilution; and 1:5,000 dilution. The starting concentrations for these dilutions were: 50 mg/ml for compound A; 10 mg/ml for compound B; 25 mg/ml for compound C; and 5 mg/ml for compound D. The dilution was made using the growth medium.
A tested compound is regarded as being active in cytotoxicity where the percentage of surviving cells after the treatment with the compound is less than 30%.

[2] = test system: lymphocytes from healthy donors; experiment: Cytotoxicity on lymphocytes from healthy donors; format: cell-based, human; conditions: 48 hours after treatment, even at 1:1,000 dilution; three healthy donors
Protocol: as §1
The blood from healthy donors was collected on citrate and diluted 1:1 with 0.15M NaCl. The dilution (6 ml) was loaded onto 3 ml of lymphoprep® (Nycomed), and the mixture was centrifuged at 800 g for 30 minutes at room temperature. The white cells were isolated and washed with RPMI1640 and 10% FBS. The white cells were diluted to provide 450,000 cells/m in RPMI1640/10% FSB medium. The tests for the compounds of this invention were performed according to the same procedures described in Section 5.1.1.

LoVo cancer cells = experiment: Cytotoxicity on LoVo cancer cells; format: cell-based; conditions: LoVo colorectal adenocarcinoma cells
Protocol: as §2, §3

TCTP = TCTP expression in treated U937 cells (western blot); format: cell-based; conditions: 24 hours, various dilutions
Protocol: U937 cells were treated with various dilutions of hydroxyzine, brompheniramine and promethazine for 24 hours as denoted in FIG. 23A. Starting concentrations were: 50 mg/ml for […] (“A”); 10 mg/ml for brompheniramine (“B”); and 25 mg/ml for promethazine (“C”). The proteins were isolated from these cells and loaded onto a gel for western blot analysis. A specific anti-TCTP (anti-HRF) antibody was used to visualize the location of TCTP. […] The level of actin in equal loading of extract was visualized by antiactin antibody (Santa Cruz Biotechnology). No substantial difference between the level of actin in treated and untreated cells was observed.

[3] = test system: Poly ADP-Ribose Polymerase (PARP); experiment: PARP cleavage in treated U937 cells (western blot); format: cell-based; conditions: 24 hours
Protocol: U937 cells were treated with various concentrations of hydroxyzine and promethazine for 24 hours. The proteins were isolated from these cells and loaded onto a gel for a western blot analysis. A specific anti-PARP antibody was used to visualize the location of PARP.

[4] = test system: blastic cells from AML patients; experiment: Inhibition of viability of fresh leukemic cells (trypan blue exclusion); format: cell-based, human; conditions: Homo sapiens, day 3; for cytotoxicity at 100 µM: 10^-4 M; for cytotoxicity at 10 µM: 10^-5 M
Method in brief: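 Blasts from AML samples 1 to 5 (least to most differentiated) were incubated with or without anti-histamine derivatives, with Polaramine as negative control. Viable counts by trypan blue exclusion at day 3, with Wright-Giemsa morphology. Values are % growth inhibition versus negative control.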

U937 cells = experiment: Antineoplastic activity, U937 cells injected in scid/scid mice, treatment from day 1; format: in vivo; conditions: 11.25 mg/kg daily intraperitoneally; six mice
Protocol: Ten million U937 cells were subcutaneously injected into scid/scid mice. One injection was carried out per each of the 6 mice tested per set. The excipient or the compounds tested were administered intraperitoneally on day 1, i.e., the day of U937 cell line inoculation, of the experiment. The excipients or compounds were administered once daily. The tumor sizes were measured on day 5, day 8, day 12, day 14 and day 19 after the injection.

[5] = test system: MDA-MB-231 (breast cancer line); experiment: Curative effects on palpable tumors, MDA-MB-231 cells in scid/scid mice; format: in vivo; conditions: 11.25 mg/kg or 22.5 mg/kg daily once tumors palpable
Protocol: In this series of experiments, effects of various compounds of the present invention on tumor development were tested using two protocols. The first protocol is directed to the testing of curative effects of these compounds in different cell lines. In this protocol, cancerous cells are inoculated to the animals, and the inoculated animals were left without any further treatment until the development of tumors. As soon as the tumors became palable (4 mm^3), the compounds of this invention were administered daily to the animals.

U937 = format: in vivo; conditions: treatment from day 1, cells inoculated after more than 24 hours, daily administration
Protocol: The second protocol was designed to test the preventive effects of the compounds of this invention on tumorigenesis. In this protocol, the animals have been treated with various compounds of the present invention on day 1. After more than 24 hours, tumoral cells were inoculated. The administration of the compounds of this invention was maintained daily. The cell line used for this test was U937.

[6] = 72 h, MEAN over AML patients, read-out: In Vitro Percent Inhibition of Viability, MEAN
[7] = 72 h, patient ID 4, FAB AML2, read-out: In Vitro Percent Inhibition of Viability
[8] = 72 h, patient ID 14, FAB AML5, read-out: In Vitro Percent Inhibition of Viability
[9] = AML1, 72 h, patient ID 1, FAB AML1, read-out: In Vitro Percent Inhibition of Viability

| SMILES | cytotoxic activity [1] | cytotoxicity [1] | surviving cell counts [2] | growth / resistance of LoVo cells (LoVo cancer cells; dihydrochloride) | growth / resistance of LoVo cells (LoVo cancer cells; listed as A, dihydrochloride) | expression of TCTP (TCTP) | PARP cleavage (induction of apoptosis) [3] | cytotoxicity at 100 µM [4, 6] [%] | cytotoxicity at 10 µM [4, 6] [%] | cytotoxicity at 100 µM [4, 7] [%] | cytotoxicity at 10 µM [4, 7] [%] | cytotoxicity at 100 µM [4, 8] [%] | cytotoxicity at 10 µM [4, 8] [%] | cytotoxicity at 100 µM [4, 9] [%] | cytotoxicity at 10 µM [4, 9] [%] | growth / resistance of LoVo cells (LoVo cancer cells) | growth / resistance of LoVo cells (LoVo cancer cells; listed as C) | mice that developed a tumor (U937 cells) | tumor volume [5] | tumor growth compared to the negative control (U937) |
| --- | --- | --- | --- | --- | --- | --- | --- | --- | --- | --- | --- | --- | --- | --- | --- | --- | --- | --- | --- | --- |
| OCCOCCN1CCN(C(c2ccccc2)c2ccc(Cl)cc2)CC1 (stereo not shown) [hydroxyzine, hydroxyzine dihydrochloride] | little cytotoxic activity | very good cytotoxicity | substantial | unaffected | totally resistant | inhibit the expression of TCTP | cleave PARP | 55 | 12 | 44 | 9 | 45 | 18 | 77 | 10 |  |  |  |  |  |
| CC(CN1c2ccccc2Sc2ccccc21)N(C)C (stereo not shown) [promethazine] | little cytotoxic activity | very good cytotoxicity | substantial |  |  | inhibit the expression of TCTP | cleave PARP |  |  |  |  |  |  |  |  | unaffected | totally resistant | one out of six | The same is also true for certain animals | decrease in tumor growth |

— US20040072824A1, “Methods and compositions for the treatment of cancer” (priority 2001, published 2004)
